# Patent US5821046A, “RNA oligonucleotides that bind HIV tat protein” (RiboTargets Holdings PLC, priority 1990, dated 1998)
# Read-outs that look alike come from different tables or passages of the source.
# Tested on: tat protein
# Assay: competition filter binding assay with chemically synthesized RNA (Table 4)
# Design: species or system HIV-1
# Settings: for IC50: 40 nM tat, read-out: D1/2
# Experimental: Competition binding reactions (0.5ml) in TK buffer (50 mM Tris.HCl(pH7.9 at 0.5M and 22° G), 20 mM KCl ) included 10nM ^32 p labeled 59-mer (ca. 20,000 cpm) , 40nM tat protein, 5 ug/ml calf thymus DNA, 2 ug/ml yeast tRNA, 40 units of RNAsin (Promega) and varying concentrations (0-300 nM) of unlabeled competitor RNA (59-mer [SEQ ID NO: 1; ], 29-mer [SEQ ID NO: 12] or preannealed (slow cooled from 90° C.) 14-mer [SEQ ID NO: 14; nucleotides 2-15] and 17-mer [SEQ ID NO: 13; nucleotides 1- 17]). Binding was allowed to take place for 2-15 minutes on ice and each reaction was filtered through a twice prewashed (0.6 ml of ice-cold TK buffer) Millipore GS filter (2.5 cm disks, 0.22 um pore) and the filter washed with TK buffer (0.6 ml). Dried filters were counted by liquid scintillation. Results were plotted on a graph (FIG. 19) showing counts retained on the filter versus the concentration of competitor RNA added.
# Competition binding reactions (0.5 ml) in TK buffer included 10 nM duplex formed from ^32 P-labeled and unlabeled 29-mer (ca. 20,000 cpm) or 10 nM duplex formed from ^32 P-labeled and unlabeled 17-mer annealed to unlabeled 14-mer, 40 nM tat protein, 5 ug/ml calf thymus DNA, 2 ug/ml yeast tRNA and varying concentrations (0-120 nM) of unlabeled competitor RNA (29-mer or modified 29-mer (FIG. 21), or 17-mer +14-mer duplex or modified 7-mer +14-mer duplex (22, 23 and 24) and were carried out as described above.
# Competition binding reactions (0-5 ml) in TK buffer included 10 nM duplex formed from ^32 P-labelled (ca. 20,000 cpm) and unlabelled 18-mer [SEQ ID NO: 13] annealed to unlabelled 15-mer [SEQ ID NO: 14], 40 nM tat protein, 5 ug/ml calf thymus DNA, 2 ug/ml yeast TRNA and varying concentrations (0-120 nM) of unlabelled competitor RNA (59-mer [SEQ ID NO: 1] or 18-mer [SEQ ID NO: 13]+15-mer [SEQ ID NO: 14] duplex, or modified 18-mer [SEQ ID NO: […]
substance,measurement,setting,value
"HIV-1 TAR (UUU): full length HIV-1 TAR RNA of 59 residues prepared by transcription, wild type, UUU bulge (GGGUCUCUCUGGUUAGACCAGAUUUGAGCCUGGGAGCUCUCUGGCUAACUAGGGAACCC; unmodified RNA) [reference compound]",Krel (59-mer),32P-end labelled 18-mer annealed to 15-mer,1.0
same,IC50,"32P-end labelled 18-mer annealed to 15-mer 10 nM, competitor 0-120 nM",18 nM
same,Krel (59-mer),32P-labeled 59-mer transcript 10 nM,1.0
same,IC50,"32P-labeled 59-mer transcript 10 nM, competitor 0-300 nM",40 nM
same,Krel (29 or 14 +17),"relative to 14 +17 duplex, 32P-end labelled 18-mer annealed to 15-mer",2.8
